Assay results from article PMC4292804 (Journal of pharmacokinetics and pharmacodynamics, 2013).
Where two headings read alike, the source gives them in different places.

Columns and labels:
tubulin [1] = details: higher than paclitaxel; cited from earlier work
[2] = cited from earlier work
CYP3A4 [3] = details: PBPK model parameter, KO mouse model; scaled from in vitro Vmax of ref 27
ABCB1 [4] = details: homozygous 1236C > T polymorphism in the ABCB1 gene; cited from earlier work
CYP3A4 [5] = details: cited from earlier work
[6] = Docetaxel pharmacokinetic; details: 3 mg/kg i.v.
ABCB1 [7] = assay: PBPK model: saturable ABCB1; set-up: species or system mice; details: value (SD) by parameter estimation, FVB data
CYP3A4 [8] = details: cited from earlier work; remark: listed apart in the source
[9] = Docetaxel pharmacokinetic; type: in vivo, mice; details: for AUC: FVB, mouse, iv, 3 mg/kg
[10] = PBPK model of docetaxel: simulations and parameter estimation; set-up: species or system mice; details: for % Difference between observed FVB AUC and predicted FVB AUC / % Difference between observed KO AUC and predicted KO AUC: 100 × (predicted − observed)/observed
[11] = Mdr1a/b constitutive knockout (KO), mouse, in vivo, iv, 3 mg/kg, 12 h
[12] = both FVB and KO mice; intravenous; cannulated gallbladder; cited from earlier work
[13] = ref Kemper et al. 46; cited from earlier work
tubulin [14] = details: determined for colchicine, used for docetaxel; cited from earlier work
[15] = value (SD) by parameter estimation, FVB and KO data

## CC(=O)O[C@@]12CO[C@@H]1C[C@H](O)[C@@]1(C)C(=O)[C@H](O)C3=C(C)[C@@H](OC(=O)[C@H](O)[C@@H](NC(=O)OC(C)(C)C)c4ccccc4)C[C@@](O)([C@@H](OC(=O)c4ccccc4)[C@H]21)C3(C)C [docetaxel, Docetaxel]
Tubulin [1]
  Binding affinity relative to paclitaxel: approximately 1.9 fold
[2]
  Bound to plasma proteins: 93%
[2]; unbound fraction in the blood
  Fraction of docetaxel unbound to plasma proteins (FU): 0.07
CYP3A4 [3]
  Saturable KO intestine metabolism Vmax (VMAXM_int_ko): 2,654 nmol/h/kg
ABCB1 [4]
  Decrease in docetaxel clearance: 25%
CYP3A4 [5]; mice with CYP3A4 expression in only the intestine
  Docetaxel cleared from plasma relative to wild-type mice: 21%
CYP3A4 [5]; transgenic mice with no CYP3A4 expression in the liver
  Docetaxel metabolites M1–4 recovered in the small intestine relative to wild-type mice: 13.5%
[6]; 12 h
  Increase in docetaxel concentration in the liver of KO versus FVB mice: 59%
[6]; during the study (1–12 h)
  Docetaxel plasma concentrations, FVB versus KO mice: did not note differences
[6]; lung, kidney, heart, intestine and brain at 2, 4, 8 and 12 h
  Docetaxel tissue concentration, KO versus FVB mice: statistically significant increase
ABCB1 [7]
  PGP transport Brain Vmax (VMAXT_brn): 14,581 (3.232) nmol/h/kg
  PGP transport Heart Vmax (VMAXT_hrt): 14,599 (3.449) nmol/h/kg
  PGP transport Kidney Vmax (VMAXT_kid): 3,003 (0.012) nmol/h/kg
  PGP transport Km (KMT): 28 (0.007) nmol/kg
  PGP transport Lung Vmax (VMAXT_lng): 340,176 (13.151) nmol/h/kg
  PGP transport Slowly perfused Vmax (VMAXT_sp): 10 (0.002) nmol/h/kg
CYP3A4 [8]; in vitro
  Vmax for CYP3A4 metabolism of docetaxel to M2: 14 pmol/min/mg microsomal protein
CYP3A4 [8]; read-out: Km for CYP3A4 metabolism of docetaxel to M2
  Km: 600 nM
[9]; FVB mice, 12 h, 3 mg/kg i.v.
  Unchanged docetaxel recovered in the feces: less than 1.5 % of the administered dose
[9]; brain
  AUC: 0.184 µM·h
[9]; heart
  AUC: 13 µM·h
[9]; intestine
  AUC: 3.21 µM·h
[9]; kidney
  AUC: 14.5 µM·h
[9]; liver
  AUC: 4.34 µM·h
[9]; lung
  AUC: 18.9 µM·h
[9]; plasma
  AUC: 0.523 µM·h
[10]; FVB, value (SD) by parameter estimation
  FVB tubular reabsorption rate constant (K_RABS_fvb): 0.02 (0.001) h^−1
[10]; KO, value (SD) by parameter estimation
  KO tubular reabsorption rate constant (K_RABS_ko): 1.8 (0.001) h^−1
[10]; brain
  % Difference between observed FVB AUC and predicted FVB AUC: −4.3%
  % Difference between observed KO AUC and predicted KO AUC: +14.8%
[10]; heart
  % Difference between observed FVB AUC and predicted FVB AUC: −11.3%
  % Difference between observed KO AUC and predicted KO AUC: +2.9%
[10]; hepatic CYP3A4 metabolism, value (SD) by parameter estimation
  First-order liver metabolism rate constant (K_LMET): 3,664 (1.444) h^−1
[10]; intestinal CYP3A4 metabolism, FVB, value (SD) by parameter estimation
  First-order FVB intestine metabolism rate constant (K_IMET_fvb): 19 (0.008) h^−1
[10]; intestine
  % Difference between observed FVB AUC and predicted FVB AUC: −3.1%
  % Difference between observed KO AUC and predicted KO AUC: +0.2%
[10]; kidney
  % Difference between observed FVB AUC and predicted FVB AUC: +6.3%
  % Difference between observed KO AUC and predicted KO AUC: −0.7%
[10]; liver
  % Difference between observed FVB AUC and predicted FVB AUC: −8.6%
  % Difference between observed KO AUC and predicted KO AUC: +3.0%
[10]; lung
  % Difference between observed FVB AUC and predicted FVB AUC: −7.9%
  % Difference between observed KO AUC and predicted KO AUC: +5.1%
[10]; plasma
  % Difference between observed FVB AUC and predicted FVB AUC: −2.9%
  % Difference between observed KO AUC and predicted KO AUC: +14.8%
[10]; value (SD) by parameter estimation
  Tubulin binding capacity, Slowly perfused (TB_sp): 521 (0.231) nmol/kg
[10]; value (SD) by parameter estimation, FVB
  Partition coefficient FVB intestine:plasma (P_int_fvb): 195 (0.008) Ratio
[10]; [15]
  Partition coefficient Brain:plasma (P_brn): 58 (0.013) Ratio
  Partition coefficient Heart:plasma (P_hrt): 990 (0.231) Ratio
  Partition coefficient Kidney:plasma (P_kid): 995 (0.222) Ratio
  Partition coefficient Liver:plasma (P_liv): 7,088 (1.653) Ratio
  Partition coefficient Lung:plasma (P_lng): 2,376 (0.546) Ratio
  Partition coefficient Slowly perfused:plasma (P_sp): 748 (0.174) Ratio
[10]; value (SD) by parameter estimation, KO
  Partition coefficient KO intestine:plasma (P_int_ko): 397 (33.970) Ratio
[11]
  Unchanged docetaxel recovered in the feces: less than 1.5 % of the administered dose
[12]
  Unchanged drug recovered in the bile: 3–4 % of the dose
[13]
  Increase in docetaxel exposure in the brain, KO versus FVB mice: +516%
Tubulin [14]
  Tubulin binding capacity, Brain (TB_brn): 10,710 nmol/kg
  Tubulin binding capacity, Heart (TB_hrt): 1,970 nmol/kg
  Tubulin binding capacity, Intestine (TB_int): 1,080 nmol/kg
  Tubulin binding capacity, Kidney (TB_kid): 1,470 nmol/kg
  Tubulin binding capacity, Liver (TB_liv): 3,510 nmol/kg
  Tubulin binding capacity, Lung (TB_lng): 2,580 nmol/kg
